Laboratory results as given in article PMC8480901 (PLoS ONE, 2021).
Where “and” joins values, the source holds several entries; their conditions need not be identical. Equal values may be shown once.

System: TNF-α, IL-6, IL-1β, GM-CSF, CXCL-1, CXCL-2, CCL-2 and MMP-9 in lung tissue
Experiment: LPS-induced cytokines, chemokines and MMP-9 in mouse lung homogenates (Luminex, ELISA)
Details: lung homogenate, LPS; for CXCL1, Mean / CXCL2, Mean / GM-CSF Mean / IL-1β Mean / IL-6 Mean / MMP9, Mean / TNFα Mean / CCL2 Mean: mean of 8; for CCL2 / CXCL1 / CXCL2 / GM-CSF / IL-1β / IL-6 / MMP9 / TNFα: individual animal, listed as Lef
Experimental: To induce pulmonary neutrophilia, mice in the control group received intranasal (IN) 50 μL saline, and all other animals received 5 μg LPS/50 μL saline IN per mouse.
After bronchoalveolar lavage, lungs were removed, weighed, snap frozen, and stored at −80°C until analysis. To homogenize the tissue, the frozen lungs were thawed and placed in Precellys CK28 Hard Tissue tubes (BERTIN Instruments, Montigny-le-Bretonneux, France) in 1 mL PBS (Gibco, Life Technologies, Paisley, UK) supplemented with protease inhibitors (Halt™ Protease Inhibitor Cocktail [100×]; Thermo Fisher Scientific, Rockford, IL, USA). A Precellys homogenizer (BERTIN Instruments) was used, shaking at 6800 rpm for three 30-second pulses separated by 15-second pauses. After homogenization, samples were centrifuged at 18,000×g for 10 minutes at 4°C, and the supernatants were collected for analysis.
Concentrations of tumor necrosis factor (TNF)-α, IL-6, granulocyte-macrophage colony-stimulating factor (GM-CSF), chemokine (C-X-C motif) ligand (CXCL)-1, CXCL-2, and chemokine (C-C motif) ligand (CCL)-2 in mouse lung homogenates were analyzed with the Mouse Premixed Multi-Analyte Kit (R&D Systems, Minneapolis, MN, USA) per the manufacturer’s protocol and using a Luminex 200 System (Luminex Corporation, Austin, TX, USA). Cytokine and chemokine concentrations were determined from blank-corrected median fluorescence intensity of each sample via xPONENT® software (Luminex Corporation), interpolating from standard curves generated with a 5-parameter logistic curve-fit.
Mouse Total MMP (matrix metalloprotease)-9 and IL-1β/IL-1F2 DuoSet ELISA (enzyme-linked immunosorbent assay) kits (R&D Systems) were used to measure concentrations of MMP-9 and IL-1β, respectively, in lung homogenates per the manufacturer’s protocols. Absorbance at 450 nm was measured using the SpectraMax i3 (Molecular Devices, San Jose, CA, USA). Concentrations of MMP-9 and IL-1β in samples were determined by interpolation from standard curves.
Differences between treated versus vehicle groups were determined using the Mann-Whitney test and were considered statistically significant when P<0.05. Outliers in the analysis of cytokine and chemokine concentrations were identified using the Grubbs test. No criteria were set for inclusion/exclusion of animals during the experiment or data points during the analysis.

## C=C[C@]1(C)C[C@@H](OC(=O)CS[C@@H]2CC[C@@H](N)C[C@H]2O)[C@]2(C)[C@H](C)CC[C@]3(CCC(=O)[C@H]32)[C@@H](C)[C@@H]1O [Lefamulin]
10 mg/kg
  CXCL1, Mean: 4983 pg/mL
  CXCL2, Mean: 3336 pg/mL
  GM-CSF Mean: 43 pg/mL
  IL-1β Mean: 12997 pg/mL
  IL-6 Mean: 175 pg/mL
  MMP9, Mean: 2244 pg/mL
  TNFα Mean: 220 pg/mL
30 mg/kg
  CCL2 % reduction: 105%
  CXCL1 % reduction: 52%
  CXCL2 % reduction: 61%
  GM-CSF % reduction: 95%
  IL-1β % reduction: 8%
  IL-6 % reduction: 120%
  MMP9 % reduction: 26%
  TNFα % reduction: 77%
  CCL2: 664.18 pg/mL and 229.87 pg/mL and 256.42 pg/mL and 281.81 pg/mL and 306.24 pg/mL and 172.04 pg/mL
  CXCL1: 9099.72 pg/mL and 7572.60 pg/mL and 6087.32 pg/mL and 5765.52 pg/mL and 5509.25 pg/mL and 4685.62 pg/mL and 6328.54 pg/mL and 4359.63 pg/mL
  CXCL2: 7789.00 pg/mL and 4810.48 pg/mL and 4106.80 pg/mL and 4675.09 pg/mL and 4634.09 pg/mL and 3899.14 pg/mL and 3943.89 pg/mL and 3825.96 pg/mL
  GM-CSF: 46.10 pg/mL and 24.75 pg/mL and 27.29 pg/mL and 23.05 pg/mL and 21.37 pg/mL and 16.32 pg/mL and 9.66 pg/mL
  IL-1β: 12246 pg/mL and 8161 pg/mL and 9564 pg/mL and 10656 pg/mL and 10104 pg/mL and 9202 pg/mL and 9081 pg/mL and 11831 pg/mL
  IL-6: 118.12 pg/mL and 87.03 pg/mL and 60.54 pg/mL and 67.15 pg/mL and 58.34 pg/mL and 45.17 pg/mL and 29.90 pg/mL and 48.46 pg/mL
  MMP9: 2129 pg/mL and 1886 pg/mL and 1848 pg/mL and 1924 pg/mL and 1726 pg/mL and 1867 pg/mL and 2081 pg/mL and 2097 pg/mL
  TNFα: 186.35 pg/mL and 395.67 pg/mL and 202.12 pg/mL and 215.17 pg/mL and 246.13 pg/mL and 275.41 pg/mL and 284.25 pg/mL and 181.07 pg/mL
  CCL2 Mean: 296 pg/mL
  CXCL1, Mean: 6176 pg/mL
  CXCL2, Mean: 4711 pg/mL
  GM-CSF Mean: 23 pg/mL
  IL-1β Mean: 10106 pg/mL
  IL-6 Mean: 64 pg/mL
  MMP9, Mean: 1945 pg/mL
  TNFα Mean: 248 pg/mL
100 mg/kg
  CCL2 % reduction: 107%
  CXCL1 % reduction: 57%
  CXCL2 % reduction: 64%
  GM-CSF % reduction: 96%
  IL-1β % reduction: 24%
  IL-6 % reduction: 117%
  MMP9 % reduction: 53%
  TNFα % reduction: 81%
  CCL2: 329.86 pg/mL and 256.42 pg/mL and 172.04 pg/mL and 139.64 pg/mL
  CXCL1: 7499.26 pg/mL and 6087.32 pg/mL and 5076.24 pg/mL and 5758.20 pg/mL and 5443.29 pg/mL and 4906.96 pg/mL and 4656.06 pg/mL and 5472.61 pg/mL
  CXCL2: 5382.65 pg/mL and 5518.93 pg/mL and 4695.59 pg/mL and 3380.13 pg/mL and 4061.97 pg/mL and 3178.30 pg/mL and 3700.08 pg/mL and 4913.16 pg/mL
  GM-CSF: 21.37 pg/mL and 19.68 pg/mL and 33.25 pg/mL and 14.65 pg/mL and 16.32 pg/mL and 11.32 pg/mL
  IL-1β: 10645 pg/mL and 6459 pg/mL and 7591 pg/mL and 8558 pg/mL and 9892 pg/mL and 7429 pg/mL and 7844 pg/mL and 8730 pg/mL
  IL-6: 135.95 pg/mL and 78.18 pg/mL and 127.03 pg/mL and 99.22 pg/mL and 71.56 pg/mL and 56.14 pg/mL and 105.88 pg/mL
  MMP9: 2385 pg/mL and 1353 pg/mL and 1095 pg/mL and 1490 pg/mL and 1351 pg/mL and 1232 pg/mL and 1807 pg/mL and 1236 pg/mL
  TNFα: 204.74 pg/mL and 121.62 pg/mL and 366.33 pg/mL and 248.69 pg/mL and 116.08 pg/mL and 181.07 pg/mL and 124.38 pg/mL and 233.28 pg/mL
  CCL2 Mean: 209 pg/mL
  CXCL1, Mean: 5612 pg/mL
  CXCL2, Mean: 4354 pg/mL
  GM-CSF Mean: 19 pg/mL
  IL-1β Mean: 8394 pg/mL
  IL-6 Mean: 91 pg/mL
  MMP9, Mean: 1494 pg/mL
  TNFα Mean: 200 pg/mL
